Key:
Conditions in all cases: ATP=10 uM, sample concentration=100 nM
[1] = molecular target: T1, PI3 Kinase (p110α/p85α) (h) (Homo sapiens, UniProt P42336); test: Inhibition of phosphatidylinositol 3-kinase alpha (PI3K α), pAkt Western blotting in EGF-stimulated MDA-MB-453 cells; type: cell-based
T1 construct: endogenous in cells; host or cells: MDA-MB-453
Experimental: The inhibition of phosphatidylinositol 3 kinase alpha (PI3K α) by those compounds prepared in Examples 1˜98 was investigated by the following experiment. The inhibition activity of each compound was measured in the following conditions: ATP=10 uM, and sample concentration=100 nM.
Human breast cancer cells (MDA-MB-453) cultured in DMEM (Dulbecco's Modified Eagle Medium, Hyclon, SH30243.01) supplemented with 10% fetal bovine serum (Hyclon, USA) were distributed in a 12-well plate at the density of 1,000,000 cells/well. The cells were stabilized in a 37° C. CO2 for 24 hours and then treated with each compound for 1 and half hours. The cells were treated with 10 ng/mL of EGF (Epidermal Growth Factor, 10 μg/mL; R&D, 2150-C5) to increase the intracellular activity of PI3K alpha. 5 minutes later, the medium was discarded and the cells were washed with cold PBS (phosphate buffered saline, Gibco, 14190-250). PBS was then eliminated completely by using a pipette. Western blotting was performed as described in step 2 to evaluate the intracellular PI3K alpha activity.
(§1) The stimulated cells were transferred in a 1.5 mL tube, followed by centrifugation at 3000 rpm for 1 minute. 100 μL of RIPA buffer (radioimmunoprecipitation assay buffer, 50 mM Tris-HCl, 5 mM EDTA, 150 mM NaCl, 1% NP-40, 1 mM PMSF, pH 8.0; ELPIS, Korea) was added thereto, which was stored in a 4° C. refrigerator for 12 hours. Centrifugation was performed at 4° C. at 14,000 rpm for 20 minutes. The supernatant was transferred into a new 1.5 mL tube. Protein was quantified by BCA (bicinchoninic acid) method and samples were prepared. The composition of the sample was as follows: sample buffer (ELPIS, EBA-1052) 5×, protein 10 μg, and 1× sample buffer to make the total volume 20 μL. The sample was heated at 100° C. for 5 minutes. The evaporated water vapor was condensed in a refrigerator. The liquid stained on the wall was fallen down by centrifugation for a few seconds. The sample proceeded to 10% SDS (Sodium Dodecyl Sulfate) acrylamide gel for separation. The separated protein was transferred onto PVDF (poly-vinyl difluoride) membrane, followed by reaction with pAkt (phospho protein kinase B) antibody (Ser473 or Thr308; Cell signaling, 9271s or 13038s) for 12 hours at 4° C. The membrane was washed with TBST (Tris-Buffered Saline with Tween 20, 10 mM Tris-HCl, pH 7.5, 150 mM NaCl, 0.1% Tween-20) three times for 5 minutes each, to which the secondary antibody (rabbit antibody, Santacruz, sc-2004) was added, followed by reaction at room temperature for 2 hours. The membrane was washed with TBST three times for 10 minutes each, to which ECL (enhanced chemiluminescence, Thermo, NCI34095KR) was sprayed. Bands were investigated by using LAS-3000.

[2] = molecular target: T2, PI3 Kinase (p110β/p86α) (h) (Homo sapiens, UniProt P42338); test: Inhibition of phosphatidylinositol 3-kinase beta (PI3K β), pAkt Western blotting in LPA-stimulated PC3 cells; type: cell-based
T2 construct: endogenous in cells; host or cells: PC3
Experimental: as §1
The inhibition of phosphatidylinositol 3 kinase beta (PI3K β) by those compounds prepared in Examples 1˜98 was investigated by the following experiment. The inhibition activity of each compound was measured in the following conditions: ATP=10 uM, and sample concentration=100 nM.
Human prostate cancer cells (PC3 cells) cultured in DMEM (Dulbecco's Modified Eagle Medium, Hyclon, SH30243.01) supplemented with 10% fetal bovine serum (Hyclon, USA) were distributed in a 12-well plate at the density of 1,000,000 cells/well. The cells were stabilized in a 37° C. CO2 for 24 hours and then treated with each compound for 1 and half hours. The cells were treated with 10 ng/mL of LPA (lysophosphatidic acid, 10 μg/mL; R&D, 2150-05) to increase the intracellular activity of PI3K beta. 5 minutes later, the medium was discarded and the cells were washed with cold PBS (phosphate buffered saline, Gibco, 14190-250). PBS was then eliminated completely by using a pipette. Western blotting was performed according to the same manner as described in step 2 of Experimental Example 1 to evaluate the intracellular PI3K beta activity.

PI3 Kinase (p120γ) (h) = molecular target: T3, PI3 Kinase (p120γ) (h) (Homo sapiens, UniProt P48736); test: Inhibition of phosphatidylinositol 3-kinase gamma (PI3K γ), pAkt Western blotting in C5a-stimulated RAW264.7 macrophages; type: cell-based, mouse
T3 construct: endogenous in cells; host or cells: RAW264.7
In short: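 Enzyme: PI3Kγ activity measured at ATP=10 uM with compound at 100 nM. Cellular: RAW264.7 macrophages treated with compound 1.5 h, then stimulated with 10 ng/mL C5a for 5 min; lysates (10 μg protein) probed by Western blot for pAkt (Ser473 or Thr308), ECL detection.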

[3] = molecular target: T4, PI3 Kinase (p110δ/p85α) (h) (Homo sapiens, UniProt O00329); test: Inhibition of phosphatidylinositol 3-kinase delta (PI3K δ), pAkt Western blotting in IgM-stimulated Raji cells; type: cell-based
T4 construct: endogenous in cells; host or cells: Raji
In short: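 Raji cells were treated with compound for 1.5 h, then stimulated with 0.25 μg/mL IgM for 30 min to activate PI3Kδ. Lysates were Western blotted for pAkt (Ser473 or Thr308) with ECL detection. Conditions stated: ATP=10 uM, sample concentration=100 nM.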

T2 sequence (P42338 whole entry): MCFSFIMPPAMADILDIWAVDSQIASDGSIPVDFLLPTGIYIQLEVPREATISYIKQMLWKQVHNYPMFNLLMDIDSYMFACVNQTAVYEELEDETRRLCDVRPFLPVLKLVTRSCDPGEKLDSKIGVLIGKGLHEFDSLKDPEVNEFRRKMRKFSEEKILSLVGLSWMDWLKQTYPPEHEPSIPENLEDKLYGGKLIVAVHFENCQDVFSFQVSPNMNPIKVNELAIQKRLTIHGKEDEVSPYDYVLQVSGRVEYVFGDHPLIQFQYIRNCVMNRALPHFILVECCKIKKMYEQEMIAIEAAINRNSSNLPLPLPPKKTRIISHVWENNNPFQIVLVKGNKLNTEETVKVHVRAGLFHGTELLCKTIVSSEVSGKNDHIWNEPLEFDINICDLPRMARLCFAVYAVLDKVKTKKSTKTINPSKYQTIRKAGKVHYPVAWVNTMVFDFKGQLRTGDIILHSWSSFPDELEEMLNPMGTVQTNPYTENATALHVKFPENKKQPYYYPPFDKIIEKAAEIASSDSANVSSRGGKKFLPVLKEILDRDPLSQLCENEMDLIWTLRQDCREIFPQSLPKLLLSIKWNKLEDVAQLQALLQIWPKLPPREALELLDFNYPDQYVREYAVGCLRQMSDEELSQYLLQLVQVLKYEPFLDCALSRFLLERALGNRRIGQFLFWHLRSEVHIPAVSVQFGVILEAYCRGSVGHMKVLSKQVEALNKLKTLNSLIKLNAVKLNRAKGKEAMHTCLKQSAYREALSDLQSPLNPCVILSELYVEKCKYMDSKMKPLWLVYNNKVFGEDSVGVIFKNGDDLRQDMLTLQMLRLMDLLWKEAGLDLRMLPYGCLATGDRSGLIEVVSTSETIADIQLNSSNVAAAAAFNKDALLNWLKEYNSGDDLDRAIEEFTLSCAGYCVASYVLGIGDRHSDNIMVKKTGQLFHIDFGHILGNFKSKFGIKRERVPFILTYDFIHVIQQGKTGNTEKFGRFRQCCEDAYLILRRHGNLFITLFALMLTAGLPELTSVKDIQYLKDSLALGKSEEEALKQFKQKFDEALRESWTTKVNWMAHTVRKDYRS
T2 sequence (P27986 whole entry partner): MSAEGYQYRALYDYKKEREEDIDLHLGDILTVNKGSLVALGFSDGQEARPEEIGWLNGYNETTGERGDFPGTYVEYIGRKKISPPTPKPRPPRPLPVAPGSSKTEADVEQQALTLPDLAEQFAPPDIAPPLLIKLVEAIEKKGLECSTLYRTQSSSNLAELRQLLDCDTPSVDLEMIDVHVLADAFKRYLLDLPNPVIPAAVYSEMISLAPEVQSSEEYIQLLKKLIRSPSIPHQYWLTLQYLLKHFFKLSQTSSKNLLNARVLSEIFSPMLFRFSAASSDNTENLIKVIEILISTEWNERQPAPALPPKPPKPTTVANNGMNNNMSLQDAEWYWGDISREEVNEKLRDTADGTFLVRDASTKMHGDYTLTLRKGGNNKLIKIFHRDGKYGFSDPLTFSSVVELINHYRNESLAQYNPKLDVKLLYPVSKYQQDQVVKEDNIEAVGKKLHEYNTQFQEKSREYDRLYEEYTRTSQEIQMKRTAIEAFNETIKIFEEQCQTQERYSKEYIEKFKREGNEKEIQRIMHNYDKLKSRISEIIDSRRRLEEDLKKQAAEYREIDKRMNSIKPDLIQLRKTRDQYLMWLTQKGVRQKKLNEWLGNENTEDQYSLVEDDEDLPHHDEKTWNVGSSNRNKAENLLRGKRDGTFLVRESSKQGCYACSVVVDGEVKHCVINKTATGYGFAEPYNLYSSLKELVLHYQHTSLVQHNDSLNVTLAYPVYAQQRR
T1 sequence (P42336 whole entry): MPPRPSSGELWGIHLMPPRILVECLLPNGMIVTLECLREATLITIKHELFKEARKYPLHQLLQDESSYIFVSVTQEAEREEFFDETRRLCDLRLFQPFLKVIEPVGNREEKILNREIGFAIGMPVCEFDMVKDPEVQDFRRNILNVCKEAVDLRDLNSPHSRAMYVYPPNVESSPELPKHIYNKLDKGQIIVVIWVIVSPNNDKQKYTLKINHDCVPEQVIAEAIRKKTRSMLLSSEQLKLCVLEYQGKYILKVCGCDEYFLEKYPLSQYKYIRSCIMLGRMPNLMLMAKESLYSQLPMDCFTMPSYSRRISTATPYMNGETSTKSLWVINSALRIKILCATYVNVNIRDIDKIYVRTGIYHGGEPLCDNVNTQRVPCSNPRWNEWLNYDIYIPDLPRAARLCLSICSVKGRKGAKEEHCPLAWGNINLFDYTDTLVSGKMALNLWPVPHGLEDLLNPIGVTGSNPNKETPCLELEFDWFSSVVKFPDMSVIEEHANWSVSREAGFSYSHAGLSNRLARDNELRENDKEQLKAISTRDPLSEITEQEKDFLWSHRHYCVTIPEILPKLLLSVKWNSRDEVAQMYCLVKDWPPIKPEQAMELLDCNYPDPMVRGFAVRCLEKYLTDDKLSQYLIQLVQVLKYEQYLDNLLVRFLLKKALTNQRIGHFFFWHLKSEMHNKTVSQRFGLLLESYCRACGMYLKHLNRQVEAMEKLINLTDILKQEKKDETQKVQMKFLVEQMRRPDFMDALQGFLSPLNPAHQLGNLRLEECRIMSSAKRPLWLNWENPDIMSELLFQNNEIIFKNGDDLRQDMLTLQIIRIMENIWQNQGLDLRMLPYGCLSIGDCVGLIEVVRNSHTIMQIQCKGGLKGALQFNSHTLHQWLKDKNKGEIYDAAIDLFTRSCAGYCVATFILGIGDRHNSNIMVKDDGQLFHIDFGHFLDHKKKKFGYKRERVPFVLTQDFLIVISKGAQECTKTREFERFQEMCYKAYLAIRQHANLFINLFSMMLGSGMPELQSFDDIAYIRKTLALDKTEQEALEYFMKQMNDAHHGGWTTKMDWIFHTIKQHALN
T1 sequence (P27986 2-724 partner limits assumed): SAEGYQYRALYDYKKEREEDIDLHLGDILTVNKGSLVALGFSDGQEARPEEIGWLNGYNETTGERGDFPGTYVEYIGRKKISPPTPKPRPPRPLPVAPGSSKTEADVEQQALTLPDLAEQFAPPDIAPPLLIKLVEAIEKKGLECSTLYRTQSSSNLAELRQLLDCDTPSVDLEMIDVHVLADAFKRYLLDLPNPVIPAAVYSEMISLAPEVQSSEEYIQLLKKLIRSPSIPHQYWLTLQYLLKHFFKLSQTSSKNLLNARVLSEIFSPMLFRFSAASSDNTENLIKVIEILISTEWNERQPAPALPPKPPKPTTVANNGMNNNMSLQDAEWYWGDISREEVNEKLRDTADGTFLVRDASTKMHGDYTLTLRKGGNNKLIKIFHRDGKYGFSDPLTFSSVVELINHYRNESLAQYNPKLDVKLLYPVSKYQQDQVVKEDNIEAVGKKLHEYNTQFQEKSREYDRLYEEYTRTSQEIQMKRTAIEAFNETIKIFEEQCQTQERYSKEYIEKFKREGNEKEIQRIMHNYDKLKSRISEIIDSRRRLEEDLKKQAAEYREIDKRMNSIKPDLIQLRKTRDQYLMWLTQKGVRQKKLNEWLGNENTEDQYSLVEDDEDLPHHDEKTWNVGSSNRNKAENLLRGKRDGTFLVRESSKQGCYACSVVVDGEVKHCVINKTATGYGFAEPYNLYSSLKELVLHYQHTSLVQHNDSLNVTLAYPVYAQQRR
T4 sequence (O00329 whole entry): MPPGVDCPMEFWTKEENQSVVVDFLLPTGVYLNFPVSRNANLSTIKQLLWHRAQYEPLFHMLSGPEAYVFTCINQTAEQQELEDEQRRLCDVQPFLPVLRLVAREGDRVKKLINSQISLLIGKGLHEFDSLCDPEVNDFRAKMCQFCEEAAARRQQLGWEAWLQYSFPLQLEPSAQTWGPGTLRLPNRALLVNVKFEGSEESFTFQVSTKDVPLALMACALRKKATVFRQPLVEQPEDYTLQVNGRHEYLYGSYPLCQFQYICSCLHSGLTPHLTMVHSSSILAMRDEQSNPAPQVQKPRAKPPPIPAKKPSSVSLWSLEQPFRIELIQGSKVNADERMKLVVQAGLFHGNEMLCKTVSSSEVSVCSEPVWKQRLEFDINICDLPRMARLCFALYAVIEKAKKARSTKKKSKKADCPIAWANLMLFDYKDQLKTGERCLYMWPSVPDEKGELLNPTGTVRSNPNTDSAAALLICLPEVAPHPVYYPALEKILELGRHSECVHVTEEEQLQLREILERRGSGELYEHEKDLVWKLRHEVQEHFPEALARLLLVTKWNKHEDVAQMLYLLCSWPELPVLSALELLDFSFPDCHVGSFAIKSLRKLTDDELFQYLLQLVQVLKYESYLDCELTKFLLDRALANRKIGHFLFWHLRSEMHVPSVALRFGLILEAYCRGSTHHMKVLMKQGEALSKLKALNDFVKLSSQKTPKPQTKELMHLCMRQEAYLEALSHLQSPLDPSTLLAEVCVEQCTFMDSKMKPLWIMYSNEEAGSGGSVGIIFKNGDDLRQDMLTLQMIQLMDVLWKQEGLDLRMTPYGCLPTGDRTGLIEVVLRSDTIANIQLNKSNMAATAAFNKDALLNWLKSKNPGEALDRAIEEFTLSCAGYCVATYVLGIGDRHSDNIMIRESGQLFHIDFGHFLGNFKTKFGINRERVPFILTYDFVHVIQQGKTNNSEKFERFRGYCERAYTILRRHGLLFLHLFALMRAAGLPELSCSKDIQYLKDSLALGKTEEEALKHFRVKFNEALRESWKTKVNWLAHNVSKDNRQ
T4 sequence (P27986 whole entry partner): as the sequence (P27986 whole entry partner) above

IC50 [1] [nM]	IC50 [2] [nM]	IC50 (PI3 Kinase (p120γ) (h)) [nM]	IC50 [3] [nM]	Structure (SMILES)
> 500	10 to 500	10 to 500	< 10	C[C@H](Nc1ncnc2[nH]ccc(=O)c12)c1nc2cccc(Cl)c2c(=O)n1-c1ccccc1 [Example 1, (S)-4-((1-(5-chloro-4-oxo-3-phenyl-3,4-dihydroquinazoline-2-yl)ethyl)amino)pyrido[2,3-d]pyrimidine-5(8H)-one]
> 500	> 500	10 to 500	< 10	C[C@H](Nc1ncnc2[nH]ccc(=O)c12)c1nc2cccc(Cl)c2c(=O)n1-c1cccnc1 [Example 2, (S)-4-((1-(5-chloro-4-oxo-3-(pyridine-3-yl)-3,4-dihydroquinazoline-2-yl)ethyl)amino)pyrido[2,3-d]pyrimidine-5(8H)-one]
> 500	> 500	10 to 500	< 10	C[C@H](Nc1ncnc2[nH]ccc(=O)c12)c1nc2cccc(Cl)c2c(=O)n1-c1ccccn1 [Example 3, (S)-4-((1-(5-chloro-4-oxo-3-(pyridine-2-yl)-3,4-dihydroquinazoline-2-yl)ethyl)amino)pyrido[2,3-d]pyrimidine-5(8H)-one]
> 500	> 500	10 to 500	< 10	C[C@H](Nc1ncnc2[nH]ccc(=O)c12)c1nc2cccc(Cl)c2c(=O)n1-c1cc(F)cc(F)c1 [Example 4, (S)-4-((1-(5-chloro-3-(3,5-difluorophenyl)-4-oxo-3,4-dihydroquinazoline-2-yl)ethyl)amino)pyrido[2,3-d]pyrimidine-5(8H)-one]
> 500	10 to 500	10 to 500	< 10	C[C@H](Nc1ncnc2[nH]ccc(=O)c12)c1cc2cccc(Cl)c2c(=O)n1-c1ccccc1 [Example 5, (S)-4-((1-(8-chloro-1-oxo-2-phenyl-1,2-dihydroisoquinoline-3-yl)ethyl)amino)pyrido[2,3-d]pyrimidine-5(8H)-one]
> 500	> 500	10 to 500	< 10	C[C@H](Nc1ncnc2[nH]ccc(=O)c12)c1cc2ccccc2nc1-c1ccccc1 [Example 6, (S)-4-((1-(2-phenylquinoline-3-yl)ethyl)amino)pyrido[2,3-d]pyrimidine-5(8H)-one]
> 500	> 500	> 500	< 10	CC(Nc1ncnc2[nH]ccc(=O)c12)c1nc2ccc(F)cc2cc1-c1ccccn1 (centres unmarked) [Example 7, 4-((1-(6-fluoro-3-(pyridine-2-yl)quinoline-2-yl)ethyl)amino)pyrido[2,3-d]pyrimidine-5(8H)-one]
> 500	> 500	> 500	10 to 500	C[C@H](Nc1ncnc2[nH]ccc(=O)c12)c1nc2ccc(F)cc2cc1-c1ccccn1 [Example 7-1, (S)-4-((1-(6-fluoro-3-(pyridine-2-yl)quinoline-2-yl)ethyl)amino)pyrido[2,3-d]pyrimidine-5(8H)-one]
> 500	> 500	10 to 500	< 10	C[C@H](Nc1ncnc2[nH]ccc(=O)c12)c1cc2ccc(F)cc2nc1-c1cccc(F)c1 [Example 8, (S)-4-((1-(7-fluoro-2-(3-fluorophenyl)quinoline-3-yl)ethyl)amino)pyrido[2,3-d]pyrimidine-5(8H)-one]
> 500	> 500	10 to 500	< 10	C[C@H](Nc1ncnc2[nH]ccc(=O)c12)c1cc2ccc(F)cc2nc1-c1ccccn1 [Example 9, (S)-4-(1-(7-fluoro-2-(pyridine-2-yl)quinoline-3-yl)ethylamino)pyrido[2,3-d]pyrimidine-5(8H)-one]
> 500	> 500	10 to 500	< 10	C[C@H](Nc1ncnc2[nH]ccc(=O)c12)c1c(Cl)c2cccc(Cl)c2c(=O)n1-c1ccccc1 [Example 10, (S)-4-((1-(4,8-dichloro-1-oxo-2-phenyl-1,2-dihydroisoquinoline-3-yl)ethyl)amino)pyrido[2,3-d]pyrimidine-5(8H)-one]
> 500	> 500	10 to 500	< 10	C[C@H](Nc1ncnc2[nH]ccc(=O)c12)c1c(F)c2cccc(Cl)c2c(=O)n1-c1ccccc1 [Example 11, (S)-4-((1-(8-chloro-4-fluoro-1-oxo-2-phenyl-1,2-dihydroisoquinoline-3-yl)ethyl)amino)pyrido[2,3-d]pyrimidine-5(8H)-one]
> 500	> 500	10 to 500	< 10	CC[C@H](Nc1ncnc2[nH]ccc(=O)c12)c1nc2cccc(F)c2c(=O)n1-c1ccccc1 [Example 12, (S)-4-((1-(5-fluoro-4-oxo-3-phenyl-3,4-dihydroquinazoline-2-yl)propyl)amino)pyrido[2,3-d]pyrimidine-5(8H)-one]
> 500	> 500	10 to 500	< 10	O=c1cc[nH]c2ncnc(N3CCC[C@H]3c3nc4cccc(Cl)c4c(=O)n3-c3ccccc3)c12 [Example 13, (S)-4-(2-(5-chloro-4-oxo-3-phenyl-3,4-dihydroquinazoline-2-yl)pyrrolidine-1-yl)pyrido[2,3-d]pyrimidine-5(8H)-one]
> 500	> 500	10 to 500	10 to 500	O=c1cc[nH]c2ncnc(N3CCC[C@H]3c3cc4cccc(Cl)c4c(=O)n3-c3ccccc3)c12 [Example 14, (S)-4-(2-(8-chloro-1-oxo-2-phenyl-1,2-dihydroisoquinoline-3-yl)pyrrolidine-1-yl)pyrido[2,3-d]pyrimidine-5(8H)-one]
10 to 500	10 to 500	10 to 500	< 10	C[C@H](Nc1nc(N)nc2[nH]ccc(=O)c12)c1cc2cccc(Cl)c2c(=O)n1-c1ccccc1 [Example 15, (S)-2-amino-4-((1-(8-chloro-1-oxo-2-phenyl-1,2-dihydroisoquinoline-3-yl)ethyl)amino)pyrido[2,3-d]pyrimidine-5(8H)-one]
> 500	> 500	10 to 500	10 to 500	Nc1nc(N2CCC[C@H]2c2cc3cccc(Cl)c3c(=O)n2-c2ccccc2)c2c(=O)cc[nH]c2n1 [Example 16, (S)-2-amino-4-(2-(8-chloro-1-oxo-2-phenyl-1,2-dihydroisoquinoline-3-yl)pyrrolidine-1-yl)pyrido[2,3-d]pyrimidine-5(8H)-one]

Source: patent publication US10526337B2, “Heteroaryl derivative or pharmaceutically acceptable salt thereof, preparation method therefor, and pharmaceutical composition for preventing or treating diseases associated with PI3 kinases, containing same as active ingredient” (KOREA RESEARCH INSTITUTE OF CHEMICAL TECHNOLOGY, priority 2015, dated 2020)
